Consider 2 molecules from patent US4382935A, “Analgesic drug containing a derivative of benzylpiperazine” (Buzas; Andre, priority 1980, dated 1983).

For data set [1], the system named is mice. The data set is described as follows: Heating-plate test performed on mice (Eddy test). It is filed as in vivo. To be noted: peroral, one hour before test, plate at 56.5° C; for ED30: Mus musculus, po, 1 h, read-out: DE30 (30% increase in licking time). On the procedure: This test has been carried out in accordance with the method described by N. B. Eddy (J. Pharmacol: 1932, 45, 339-359).
One hour after the product under study has been administered perorally to batches of twelve mice per dose, the time taken by the mice to lick their front paws is measured, the mice having been placed on a plate heated to a temperature of 56.5° C.
The dose DE30 (which produces a 30% increase in licking time with respect to the reference animals) is calculated on the basis of the dose/effect relation.

Data set [2] concerns the target morphine-compound cerebral receptors. The data set is described as follows: Fixation on morphine-compound cerebral receptors (displacement of tritiated etorphin). To be noted: rat-brain homogenate, 1 mg/ml protein, 30 minutes at 35° C; read-out: CI50 (displacement of tritiated etorphin). It is filed as binding. On the procedure:
It is sought to determine the affinity of the products under study by means of their capacity for displacement of tritiated etorphin in a rat-brain homogenate (containing 1 mg/ml of protein) over a period of 30 minutes at 35° C. This test consists in determining the value CI50 corresponding to the concentration of products which are capable of inhibiting 50% of the specific radioactive ligand bond.

The subject of data set [3] is mice. The data set is described as follows: Antagonism produced by Naloxone in the Siegmund test. It is filed as in vivo. The protocol: (§1) One hour after peroral administration of the product under study to batches of twelve mice per dose, phenylbenzoquinone in solution in a proportion of 0.02% in water containing 5% ethyl alcohol is administered by intraperitoneal injection in a proportion of 0.25 ml per mouse of 20 g.
The dose DE50 (which produces a 50% reduction in the number of contortions with respect to the reference animals) is calculated on the basis of the dose/effect relation. The following results are thus obtained:
This antagonism is sought in the Siegmund test performed on mice with phenylbenzoquinone as described earlier. Naloxone is administered by subcutaneous injection at a fixed dose at the same time as the product under study.

Data set [4] has as its system rat fundus. The data set is described as follows: Antagonism produced by harmine on rat fundus. Format: cell-based. To be noted: product as agonist, harmine as antagonist. On the procedure: (§2) These interactions are sought on isolated organs which are maintained in a state of survival in a nutrient liquid. The contractions of these organs are recorded on a kymograph by means of an isotonic mechanism.
(§3) An agonist is added to the nutrient liquid bath, either alone or after addition of an antagonist, to increasing concentrations which serve to plot cumulative dose-response curves.
The organ studied in this case is the rat fundus the nutrient liquid is the Kreps liquid, the agonist corresponds to the product under study and the antagonist is harmine.

In data set [5] the test system is mice. The data set is described as follows: Siegmund test with phenylbenzoquinone in mice. It is filed as in vivo. To be noted: Mus musculus, po, 1 h, peroral, one hour before phenylbenzoquinone i.p., read-out: DE50 (50% reduction in the number of contortions). The protocol: This test has been performed in accordance with the method described by Siegmund, Cadmus and Lu ("A method for evaluating both non-narcotic and narcotic analgesics", Proc. Soc. Exp. Biol. Med., 1957, 95, 729-731).
as §1
The dose DE50 (which produces a 50% reduction in the number of contortions with respect to the reference animals) is calculated on the basis of the dose/effect relation.

The target in data set [6] is T1, guinea-pig ileum (Cavia porcellus, UniProt P31389).
T1 construct: the organ on which this action has been studied is the guinea-pig ileum; from tissue; host or cells: isolated guinea-pig ileum
The data set is described as follows: Antagonism with respect to histamine on isolated organ. It is filed as cell-based. To be noted: agonist histamine. The protocol: as §2, §3
In this test, the organ on which this action has been studied is the guinea-pig ileum. The nutrient liquid employed is Tyorode, the agonist is histamine and the antagonist is the product under study.

Data set [7] can be described thus: Acute toxicity in mice (DL50), peroral. The settings on record: mouse, in vivo, po, mortality over 48 hours. On the procedure: The acute toxicity is evaluated according to the mortality observed during a period of 48 hours on batches of four mice which have received perorally 100, 200, 400, 800 and 1600 mg/kg of the compound under study.
For data set [8], the target named is T2, rat fundus (Rattus norvegicus, UniProt P30994).
T2 construct: The organ under study is the rat fundus; from tissue; host or cells: isolated rat fundus
The data set is described as follows: Antagonism with respect to serotonin on isolated organ. It is filed as cell-based. To be noted: for nature of antagonism with respect to serotonin: rat fundus, agonist serotonin. The protocol: as §2, §3
The organ under study is the rat fundus, the nutrient liquid employed is Kreps liquid, the agonist is serotonin and the antagonist is the product under study.

Data set [9] deals with rat fundus. The data set is described as follows: Agonism on the rat fundus. It is filed as cell-based. The settings on record: product under study as agonist. On the procedure:
as §2, §3
The organ under study is the rat fundus, the nutrient liquid is the Kreps liquid and the agonist is the product under study.

Values joined by “and” are separate entries in the source; they are usually repeats but may differ in a detail not shown here. Identical values can stand only once. Some results are limits rather than exact numbers.

T2 sequence (P30994 whole entry): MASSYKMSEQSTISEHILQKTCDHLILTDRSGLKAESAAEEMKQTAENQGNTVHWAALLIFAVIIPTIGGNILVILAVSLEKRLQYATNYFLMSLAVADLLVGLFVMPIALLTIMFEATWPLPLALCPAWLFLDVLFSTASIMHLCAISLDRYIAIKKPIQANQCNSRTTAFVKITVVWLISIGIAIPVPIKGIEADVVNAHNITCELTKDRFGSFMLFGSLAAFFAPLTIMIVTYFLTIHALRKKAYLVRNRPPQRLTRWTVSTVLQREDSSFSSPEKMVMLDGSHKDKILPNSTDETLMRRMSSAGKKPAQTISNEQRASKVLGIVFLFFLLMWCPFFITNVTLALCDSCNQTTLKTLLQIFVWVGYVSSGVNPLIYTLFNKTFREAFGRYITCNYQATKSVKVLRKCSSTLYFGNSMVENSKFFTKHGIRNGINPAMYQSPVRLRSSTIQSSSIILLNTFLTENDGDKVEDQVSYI
T1 sequence (P31389 whole entry): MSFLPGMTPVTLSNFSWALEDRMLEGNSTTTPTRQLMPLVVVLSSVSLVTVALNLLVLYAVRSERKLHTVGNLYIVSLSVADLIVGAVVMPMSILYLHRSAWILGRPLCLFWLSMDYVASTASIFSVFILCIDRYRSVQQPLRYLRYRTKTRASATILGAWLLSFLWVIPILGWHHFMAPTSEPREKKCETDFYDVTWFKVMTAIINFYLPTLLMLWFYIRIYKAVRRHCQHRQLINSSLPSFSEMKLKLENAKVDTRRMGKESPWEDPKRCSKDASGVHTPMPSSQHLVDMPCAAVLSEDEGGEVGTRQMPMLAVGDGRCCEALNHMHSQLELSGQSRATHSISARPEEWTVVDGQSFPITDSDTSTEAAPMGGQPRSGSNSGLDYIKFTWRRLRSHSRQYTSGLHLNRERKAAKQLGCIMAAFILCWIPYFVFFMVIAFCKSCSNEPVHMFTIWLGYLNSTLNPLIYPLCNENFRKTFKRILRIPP

With `c1ccc(CN2CCN(c3coc4ccccc34)CC2)cc1` [1-(3'-benzofuryl)-4-benzylpiperazine], in data set [1], the ED30 stood at 20 mg/kg and the “DE30 (30% increase in licking time)” value came to 70 micro-moles per kg. In addition, the IC50 in data set [2] was over 300 µM. The “antagonism of analgesic effect by Naloxone (conclusion)” value in data set [3] is given as “antagonized by Naloxone”. The “nature of antagonism by harmine with respect to the product” value in data set [4] is listed as “competitive antagonism”. In addition, in data set [5], the ED50 was 22 µmol/kg and 6.5 mg/kg. Also, in data set [6], the “affinity parameter (pA2) with respect to histamine” value was determined as 5.99 and the “nature of antagonism with respect to histamine” value is recorded as “competitive antagonist”. Also, the median lethal dose (LD50) – broadly, the dose at which mortality reaches 50% – at 48 h in [7] is 5500 µmol/kg and 1600 mg/kg. Besides, in data set [8], the “nature of antagonism with respect to serotonin” value is “non-competitive antagonist”. For the same molecule, in data set [9], the “affinity parameter (pD2) as agonist” value turned out to be 7.0.

On to `CC(=O)n1cc(N2CCN(Cc3ccccc3)CC2)c2ccccc21` [known compound, 1-acetyl-3-benzylpiperazino-indole], for which, in [1], the ED30 amounted to 13 mg/kg and the “DE30 (30% increase in licking time)” value is recorded as 40 micro-moles per kg. Moreover, the IC50 in data set [2] amounted to 103 µM. Further, the “antagonism of analgesic effect by Naloxone (conclusion)” value in data set [3] was “not antagonized”. Further, the “nature of antagonism by harmine with respect to the product” value in data set [4] is given as “non-competitive antagonism”. For the same molecule, the ED50 in [5] was 55 µmol/kg and 18 mg/kg. For the same molecule, the “nature of antagonism with respect to histamine” value in data set [6] is “non-competitive antagonist”. The LD50 at 48 h in [7] is 3000 µmol/kg and 1000 mg/kg. Also, in [8], the Kb (as a rule, the affinity of an antagonist, worked out from how it opposes an agonist) is 4.57 µM and the “nature of antagonism with respect to serotonin” value is reported as “competitive antagonist”. Besides, the “affinity parameter (pD2) as agonist” value in [9] is reported as 5.4.
